From patent US5393785A, “Therapeutic antiestrogens” (Endorecherche, Inc., priority 1992, dated 1995)

Assays:
[1] = system: rat uterine cytosol estrogen receptor; assay: competition binding on rat uterine cytosol estrogen receptor with [3H]estradiol; details: incubation at 25° C. for 3 hours; [3H]estradiol competition
Description: FIG. 1 illustrates a competition binding assay of the affinity of estradiol, diethylstilbestrol, ICI 164384 (Wakeling A. E. and Bowler J., 1987; J. Endocr. 112, R7-R10) and EM-142 (an antiestrogen in accordance with the invention synthesized in example 1, herein) for the rat uterine cytosol receptor (Asselin et al., 1978; J. Steroid Biochem. 9:1079-1082).
EM-142 from example 1 was tested by competition binding on the rat uterine cytosol estrogen receptor with [^3 H]estradiol according to Asselin et al. (1976) procedure. […] (Incubation was performed at 25° C. for 3 hours).

[2] = system: estradiol-induced stimulation of uterine weight; assay: inhibition of estradiol-induced stimulation of uterine weight in ovariectomized mice; assay type: in vivo, Balb/c mice
Description: FIG. 2 illustrates the effect of the indicated doses of EM-142 injected twice daily (b.i.d.) on uterine weight (mg) in adult female ovariectomized Balb/C mice treated for 4.5 days in the presence or absence of simultaneous treatment with 17β-estradiot (0.01 μg, b.i.d.). […] EM-142, and/or estradiol contained in ethanol were injected subcutaneously in the appropriate groups in a solution of 0.9% (w/v) sodium chloride and 1% (w/v) gelatin at different concentrations in 0.2 ml for EM-142, twice daily, starting on the day of ovariectomy for a total of 9 injections. Estradiol was injected at the dose of 0.01 μg in 0.2 ml, twice daily, starting on the morning after ovariectomy for a total of 8 injections. After sacrifice, the uteri were rapidly removed, freed from fat and connective tissue and weighted. Results shown in FIG. 2 are the means ± SEM of groups of 9-10 mice.

advanced breast cancer = details: cited from earlier work

SMILES | binding potency compared with ICI 164384 [1] | binding potency relative to 17β-estradiol (times less potent) [1] [times] | effect on E2-induced uterine growth at 0.3 μg ([2]; 0.3 μg s.c. twice daily, 9 injections, estradiol 0.01 μg b.i.d.) | effect on estrogenic action at 20 μg ([2]; 20 μg s.c. twice daily, 9 injections, estradiol 0.01 μg b.i.d.) | estrogenic (agonistic) effect on uterine weight ([2]; EM-142 in absence of estradiol, s.c. twice daily) | dose giving half-maximal inhibitory effect on E2-induced uterine growth ([2]; s.c. twice daily, 9 injections, estradiol 0.01 μg b.i.d.) | women patients treated with remission of advanced breast cancer (advanced breast cancer)
CCCCN(C)C(=O)CCCCCCCCCCC(=C(CC)c1ccc(O)cc1)c1ccc(O)cc1 [EM-142, N-butyl,N-methyl-12,13-Bis (4-hydroxyphenyl)-12-pentadecenoic amide] | more potent than the antiestrogen ICI 164384 | 3 | significant inhibitory effect | complete reversal of estrogenic action | no estrogenic effect on uterine weight | approximately 3 μg | –
CC/C(=C(\c1ccccc1)c1ccc(OCCN(C)C)cc1)c1ccccc1 [Tamoxifen] | – | – | – | – | – | – | about 30%
